For orientation: inhibition means how much of the control response was suppressed. A high value points to a response far below the control.

In the assay the target is T1, GRK6 (Homo sapiens, UniProt P43250).
T1 construct: purchased Thermo Fisher Scientific (Life Technologies) SelectScreen
The experiment in a line: SelectScreen Z'LYTE. Type of assay: biochemical. The essentials: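 Percent values come from Thermo SelectScreen profiling of NU5455, combining activity and binding assays. CSF1R was run in Z'LYTE format at Km app ATP, and CAMK1 in Adapta format with ATP listed at 10.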

T1 sequence (P43250 whole entry): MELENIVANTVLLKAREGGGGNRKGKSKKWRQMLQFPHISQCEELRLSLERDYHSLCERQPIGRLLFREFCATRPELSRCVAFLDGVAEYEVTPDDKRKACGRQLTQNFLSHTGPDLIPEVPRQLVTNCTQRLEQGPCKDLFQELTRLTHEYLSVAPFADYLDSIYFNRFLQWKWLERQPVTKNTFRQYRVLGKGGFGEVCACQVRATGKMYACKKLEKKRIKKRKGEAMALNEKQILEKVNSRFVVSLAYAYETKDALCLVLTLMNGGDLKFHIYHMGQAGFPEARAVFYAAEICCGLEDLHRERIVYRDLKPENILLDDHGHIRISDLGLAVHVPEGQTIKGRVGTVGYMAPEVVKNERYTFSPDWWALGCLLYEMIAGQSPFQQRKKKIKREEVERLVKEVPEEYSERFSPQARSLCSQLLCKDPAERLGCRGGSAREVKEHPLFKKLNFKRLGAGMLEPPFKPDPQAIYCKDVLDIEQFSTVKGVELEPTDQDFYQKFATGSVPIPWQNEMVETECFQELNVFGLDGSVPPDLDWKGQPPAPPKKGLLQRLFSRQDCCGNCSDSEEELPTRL

`CN(C(=O)CN1CCOCC1)c1ccc2sc3c(-c4cccc5c(=O)cc(N6CC7CCC(C6)O7)oc45)cccc3c2c1` [NU5455] registered an inhibition at 1 µM of 3.7%.

The record behind these values is paper PMC6934184, “Selective DNA-PKcs inhibition extends the therapeutic index of localized radiotherapy and chemotherapy” (The Journal of Clinical Investigation, 2019).
